Assay results from patent US20110190269A1, “GAMMA SECRETASE MODULATORS” (priority 2010, published 2011).
Structures can show the parent of a compound that is named as a salt.

System: γ-secretase
Test: Cellular γ-secretase assay (inhibition of Aβ42 secretion)
Assay type: cell-based
Conditions: human neuroglioma H4 cells overexpressing human APP, 22 hrs incubation
Outline: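 H4 neuroglioma cells overexpressing human APP got a ten-point compound dilution (0.4% DMSO final) for 22 h at 37 °C. Secreted Aβ42 in the supernatant was measured by electrochemiluminescence sandwich immunoassay (capture biotinylated 6E10, detection ruthenylated BAP15). IC50 came from a nonlinear regression fit.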

SMILES | EC50 [µM]
COc1cc(Nc2nc3n(n2)C(c2ccc(Cl)cc2)CC(=O)N3)ccc1-n1cnc(C)c1 (stereo not shown) [Example 61, 7-(4-Chloro-phenyl)-2-[3-methoxy-4-(4-methyl-imidazol-1-yl)-phenylamino]-6,7-dihydro-4H-[1,2,4]triazolo[1,5-a]pyrimidin-5-one] | 0.831
COc1cc(Nc2nc3ncc(C#N)c(-c4ccccc4C)n3n2)ccc1-n1cnc(C)c1 [Example 67, 2-(3-Methoxy-4-(4-methyl-1H-imidazol-1-yl)phenylamino)-7-o-tolyl-[1,2,4]triazolo[1,5-a]pyrimidine-6-carbonitrile] | 0.45
COc1cc(Nc2nc3nccc(-c4ccncc4)n3n2)ccc1-n1cnc(C)c1 [Example 68, N-(3-Methoxy-4-(4-methyl-1H-imidazol-1-yl)phenyl)-7-(pyridin-4-yl)-[1,2,4]triazolo[1,5-a]pyrimidin-2-amine] | 1.17
COc1cc(Nc2nc3ncc(C#N)c(-c4ccccc4F)n3n2)ccc1-n1cnc(C)c1 [Example 69, 7-(2-Fluorophenyl)-2-(3-methoxy-4-(4-methyl-1H-imidazol-1-yl)phenylamino)-[1,2,4]triazolo[1,5-a]pyrimidine-6-carbonitrile] | 0.485
COc1ccccc1-c1c(C#N)cnc2nc(Nc3ccc(-n4cnc(C)c4)c(OC)c3)nn12 [Example 70, 2-(3-Methoxy-4-(4-methyl-1H-imidazol-1-yl)phenylamino)-7-(2-methoxyphenyl)-[1,2,4]triazolo[1,5-a]pyrimidine-6-carbonitrile] | 0.673
COc1cc(Nc2nc3nccc(-c4ccc(F)cc4)n3n2)ccc1-n1cnc(C)c1 [Example 71, [7-(4-Fluoro-phenyl)-[1,2,4]triazolo[1,5-a]pyrimidin-2-yl]-[3-methoxy-4-(4-methyl-imidazol-1-yl)-phenyl]-amine] | 0.27
COc1cc(Nc2nc3c(C)cnc(OCC(F)(F)F)n3n2)ccc1-n1cnc(C)c1 [Example 72, [3-Methoxy-4-(4-methyl-imidazol-1-yl)-phenyl]-[8-methyl-5-(2,2,2-trifluoro-ethoxy)-[1,2,4]triazolo[1,5-c]pyrimidin-2-yl]-amine] | 0.355
COc1cc(Nc2nc3nccc(-c4ccc(F)c(Cl)c4)n3n2)ccc1-n1cnc(C)c1 [Example 73, 7-(3-Chloro-4-fluorophenyl)-N-(3-methoxy-4-(4-methyl-1H-imidazol-1-yl)phenyl)-[1,2,4]triazolo[1,5-a]pyrimidin-2-amine hydrochloride] | 0.359
COc1cc(Nc2nc3nc(C(F)(F)F)cc(-c4ccc(F)c(Cl)c4)n3n2)ccc1-n1cnc(C)c1 [Example 79, 7-(3-Chloro-4-fluorophenyl)-N-(3-methoxy-4-(4-methyl-1H-imidazol-1-yl)phenyl)-5-(trifluoromethyl)-[1,2,4]triazolo[1,5-a]pyrimidin-2-amine acetate] | 0.073
COc1cc(Nc2nc3c(-c4ccc(F)c(F)c4)cc(C(F)(F)F)cn3n2)ccc1-n1cnc(C)c1 [Example 80, 8-(3,4-Difluorophenyl)-N-(3-methoxy-4-(4-methyl-1H-imidazol-1-yl)phenyl)-6-(trifluoromethyl)-[1,2,4]triazolo[1,5-a]pyridin-2-amine] | 0.121
COc1cc(Nc2nc3c(-c4ccc(N5CCOCC5)cc4)cc(C)cn3n2)ccc1-n1cnc(C)c1 [Example 82, N-(3-Methoxy-4-(4-methyl-1H-imidazol-1-yl)phenyl)-6-methyl-8-(4-morpholinophenyl)-[1,2,4]triazolo[1,5-a]pyridin-2-amine] | 0.242
COc1ccc(-c2cc(C)cn3nc(Nc4ccc(-n5cnc(C)c5)c(OC)c4)nc23)c(OC)c1 [Example 84, 8-(2,4-Dimethoxyphenyl)-N-(3-methoxy-4-(4-methyl-1H-imidazol-1-yl)phenyl)-6-methyl-[1,2,4]triazolo[1,5-a]pyridin-2-amine] | 0.321
COc1cc(Nc2nc3c(-c4ccc(F)cc4Cl)cc(F)cn3n2)ccc1-n1cnc(C)c1 [Example 86, 8-(2-Chloro-4-fluorophenyl)-6-fluoro-N-(3-methoxy-4-(4-methyl-1H-imidazol-1-yl)phenyl)-[1,2,4]triazolo[1,5-a]pyridin-2-amine] | 0.143
COc1cc(Nc2nc3c(-c4ccc5c(c4)OCCN5C)cc(C)cn3n2)ccc1-n1cnc(C)c1 [Example 89, N-(3-Methoxy-4-(4-methyl-1H-imidazol-1-yl)phenyl)-6-methyl-8-(4-methyl-3,4-dihydro-2H-benzo[b][1,4]oxazin-7-yl)-[1,2,4]triazolo[1,5-a]pyridin-2-amine] | 0.29

More lines, now with the values ahead:

EC50 [µM] | SMILES
0.01 | COc1cc(Nc2nc3c(-c4ccc(F)c(Cl)c4)cc(C)cn3n2)ccc1-n1cnc(C)c1 [Example 62, [8-(3-Chloro-4-fluoro-phenyl)-6-methyl-[1,2,4]triazolo[1,5-a]pyridin-2-yl]-[3-methoxy-4-(4-methyl-imidazol-1-yl)-phenyl]-amine]
0.01 | COc1cc(Nc2nc3c(-c4ccc(F)c(F)c4)cc(C)cn3n2)ccc1-n1cnc(C)c1 [Example 63, [8-(3,4-Difluoro-phenyl)-6-methyl-[1,2,4]triazolo[1,5-a]pyridin-2-yl]-[3-methoxy-4-(4-methyl-imidazol-1-yl)-phenyl]-amine]
0.073 | COc1cc(F)ccc1-c1cc(C)cn2nc(Nc3ccc(-n4cnc(C)c4)c(OC)c3)nc12 [Example 64, [8-(4-Fluoro-2-methoxy-phenyl)-6-methyl-[1,2,4]triazolo[1,5-a]pyridin-2-yl]-[3-methoxy-4-(4-methyl-imidazol-1-yl)-phenyl]-amine]
0.024 | COc1cc(Nc2nc3c(-c4ccc(F)cc4Cl)cc(C)cn3n2)ccc1-n1cnc(C)c1 [Example 65, [8-(2-Chloro-4-fluoro-phenyl)-6-methyl-[1,2,4]triazolo[1,5-a]pyridin-2-yl]-[3-methoxy-4-(4-methyl-imidazol-1-yl)-phenyl]-amine]
0.238 | COc1cc(Nc2nc3c(-c4ccc(F)cc4C)cc(C)cn3n2)ccc1-n1cnc(C)c1 [Example 66, [8-(4-Fluoro-2-methyl-phenyl)-6-methyl-[1,2,4]triazolo[1,5-a]pyridin-2-yl]-[3-methoxy-4-(4-methyl-imidazol-1-yl)-phenyl]-amine]
0.035 | COc1cc(Nc2nc3c(-c4ccc(F)cc4F)cc(C)cn3n2)ccc1-n1cnc(C)c1 [Example 74, 8-(2,4-Difluorophenyl)-N-(3-methoxy-4-(4-methyl-1H-imidazol-1-yl)phenyl)-6-methyl-[1,2,4]triazolo[1,5-a]pyridin-2-amine]
0.019 | COc1cc(Nc2nc3c(-c4ccc(F)c(C(F)(F)F)c4)cc(C)cn3n2)ccc1-n1cnc(C)c1 [Example 75, 8-(4-Fluoro-3-(trifluoromethyl)phenyl)-N-(3-methoxy-4-(4-methyl-1H-imidazol-1-yl)phenyl)-6-methyl-[1,2,4]triazolo[1,5-a]pyridin-2-amine]
0.019 | COc1cc(Nc2nc3c(-c4ccc(F)c(C)c4)cc(C)cn3n2)ccc1-n1cnc(C)c1 [Example 76, 8-(4-Fluoro-3-methylphenyl)-N-(3-methoxy-4-(4-methyl-1H-imidazol-1-yl)phenyl)-6-methyl-[1,2,4]triazolo[1,5-a]pyridin-2-amine]
0.027 | COc1cc(Nc2nc3c(-c4ccc(F)c(C#N)c4)cc(C)cn3n2)ccc1-n1cnc(C)c1 [Example 78, 2-Fluoro-5-(2-(3-methoxy-4-(4-methyl-1H-imidazol-1-yl)phenylamino)-6-methyl-[1,2,4]triazolo[1,5-a]pyridin-8-yl)benzonitrile]
0.022 | COc1cc(Nc2nc3c(-c4ccc(F)c(F)c4)cc(Cl)cn3n2)ccc1-n1cnc(C)c1 [Example 81, 6-Chloro-8-(3,4-difluorophenyl)-N-(3-methoxy-4-(4-methyl-1H-imidazol-1-yl)phenyl)-[1,2,4]triazolo[1,5-a]pyridin-2-amine]
0.408 | COc1cc(Nc2nc3c(-c4ccc(CC#N)cc4)cc(C)cn3n2)ccc1-n1cnc(C)c1 [Example 83, 2-(4-(2-(3-Methoxy-4-(4-methyl-1H-imidazol-1-yl)phenylamino)-6-methyl-[1,2,4]triazolo[1,5-a]pyridin-8-yl)phenyl)acetonitrile]
0.032 | COc1cc(Nc2nc3c(-c4ccc(F)c(F)c4)cc(F)cn3n2)ccc1-n1cnc(C)c1 [Example 85, 8-(3,4-Difluorophenyl)-6-fluoro-N-(3-methoxy-4-(4-methyl-1H-imidazol-1-yl)phenyl)-[1,2,4]triazolo[1,5-a]pyridin-2-amine]
0.044 | COc1cc(Nc2nc3c(-c4ccc5nc(C)oc5c4)cc(C)cn3n2)ccc1-n1cnc(C)c1 [Example 87, N-(3-Methoxy-4-(4-methyl-1H-imidazol-1-yl)phenyl)-6-methyl-8-(2-methylbenzo[d]oxazol-6-yl)-[1,2,4]triazolo[1,5-a]pyridin-2-amine]
0.188 | COc1cc(Nc2nc3c(-c4ccc5ncn(C)c5c4)cc(C)cn3n2)ccc1-n1cnc(C)c1 [Example 88, N-(3-Methoxy-4-(4-methyl-1H-imidazol-1-yl)phenyl)-6-methyl-8-(1-methyl-1H-benzo[d]imidazol-6-yl)-[1,2,4]triazolo[1,5-a]pyridin-2-amine]
0.475 | COc1cc(Nc2nc3c(-c4ccc(C(C)(C)O)c(F)c4)cc(C)cn3n2)ccc1-n1cnc(C)c1 [Example 90, 2-(2-Fluoro-4-(2-(3-methoxy-4-(4-methyl-1H-imidazol-1-yl)phenylamino)-6-methyl-[1,2,4]triazolo[1,5-a]pyridin-8-yl)phenyl)propan-2-ol]
0.31 | COc1cc(Nc2nc3c(-c4ccc(Cl)cc4C=O)cc(C)cn3n2)ccc1-n1cnc(C)c1 [Example 91, 5-Chloro-2-(2-(3-methoxy-4-(4-methyl-1H-imidazol-1-yl)phenylamino)-6-methyl-[1,2,4]triazolo[1,5-a]pyridin-8-yl)benzaldehyde]
0.375 | COc1cc(Nc2nc3c(-c4ccc(Cl)cc4CO)cc(C)cn3n2)ccc1-n1cnc(C)c1 [Example 92, (5-Chloro-2-(2-(3-methoxy-4-(4-methyl-1H-imidazol-1-yl)phenylamino)-6-methyl-[1,2,4]triazolo[1,5-a]pyridin-8-yl)phenyl)methanol]
